Test results: patent US20240148718A1, “INHIBITING MUTANT ISOCITRATE DEHYDROGENASE 1 (mIDH-1)” (FORMA Therapeutics, Inc., priority 2018, published 2024)

What was measured:
[1] = tested on: IDH1m clone in AML patients; assay: IDH1 Variant Allele Frequency (VAF) analysis in Phase 1 patients; format: in vivo, human
Method: Next generation sequencing was carried out through target enrichment using HaloPlex® Target followed by Illumina® sequencing; coverage>100X across 75 genes. Digitial droplet PCR (ddPCR) was carried out through an input of 20 ng on a Stilla 3-channel system; VAF data based on >20,000 droplets.
25 patients achieved an objective response and 6 patients with SD had available longitudinal samples for analysis (VAF at C3).

BCL6 = BCL6 (Homo sapiens, UniProt P41182); assay: Surface Plasmon Resonance (SPR), control surface; format: binding; conditions: immobilized unrelated protein BCL6
[2] = tested on: AML/MDS harboring IDH1-R132 mutations; assay: Phase 1 dose escalation and expansion study, investigator-assessed response; format: in vivo, human

C[C@H](Nc1ccc(C#N)n(C)c1=O)c1cc2cc(Cl)ccc2[nH]c1=O [Compound 1, 5-{[(1S)-1-(6-chloro-2-oxo-1,2-dihydroquinolin-3-yl)ethyl]amino}-1-methyl-6-oxo-1,6-dihydropyridine-2-carbonitrile]
patients with clearance/significant reduction of the IDH1m VAF ([1]; 3 of 6 patients with stable disease): 50% | patients with IDH1 mutation clearance/significant VAF reduction ([1]; 10 of 25 patients with an IWG (objective) response, single agent or with azacitidine, VAF at ≥C3): 40% | IDH1 mutation and 2-HG, case study 2 ([1]; one treatment naive AML secondary to MDS patient, single agent, stable for 15 cycles, no IWG response): IDH1 mutation clearance and normalization of 2-HG were observed | binding to control surface (BCL6): no binding was observed | CR/CRm, n (%) ([2]; All Pts): 5 (16) n (%) | CRh, n (%) ([2]; All Pts): 3 (9) n (%) | Marrow CR, n (%) ([2]; All Pts): 1 (3) n (%) | PD, n (%) ([2]; All Pts): 3 (9) n (%) | CR/CRm, n (%) ([2]; R/R AML): 4 (18) n (%) | CRh, n (%) ([2]; R/R AML): 3 (14) n (%) | Cri, n (%) ([2]; R/R AML): 2 (9) n (%) | NE, n (%) ([2]; R/R AML): 6 (27) n (%) | PD, n (%) ([2]; R/R AML): 2 (9) n (%) | pts achieving ORR ([2]; R/R AML): 41%
